The values that follow come from patent US7423030B2, “1-amino-phthalazine derivatives, the preparation and the therapeutic use thereof” (Sanofi-Aventis, priority 2004, dated 2008).

Where a name gives a salt, the structure may show the parent alone.

The target of data set [1] is MCH1 receptor (UniProt P97639). Nature of the data set: Displacement of [125I]-Tyr-S36057 binding to MCH1 receptors on brain membrane preparations. The conditions noted are these: rat and/or mouse brain membranes, 50 pM [125I]-Tyr-S36057, room temperature, 30 minutes; read-out: IC50 (concentration that inhibits 50% of the specific binding). (In general: Displacement assays read how much labelled ligand stays bound in the presence of the test substance.)
Description: The compounds according to the invention underwent pharmacological tests. Their affinity towards the receptor 1 of Melamin-Concentrating Hormone (MCH), MCH1 was determined by these means.
The tests consisted in measuring the in vitro activity of the compounds of the invention on the MCH1 receptors of MCH.
The measurement of the affinity of the compounds of the invention for the MCH receptors was performed by studying the displacement of the binding of a radiolabelled derivative of MCH to the MCH1 receptors. This study was performed on rat and/or mouse brain membrane preparations according to the protocol described below.
In anticipation of the binding studies, the brains are diluted in HEPES buffer 25 mM (pH: 7.4) containing MgCl2 5 mM, CaCl2 1 mM, homogenized using a Polytron blender for 3 times 20 seconds (speed 25), and are then ultracentrifuged at 22 000 rpm and at +4° C. for 30 minutes. […]
The incubation is performed at room temperature for 30 minutes, and then stopped by rapid addition of ice-cold HEPES buffer 25 mM (pH: 7.4) supplemented with 0.2% bovine serum albumin, and by filtration through GF/B glass fibre filters preincubated for 2 hours in an aqueous 0.1% polyethyleneimine solution. The radioactivity retained on the filters is measured using a Gamma scintillation counter. The non-specific binding is determined in the presence of 1 μM of non-radiolabelled S36057. […]

Data set [2] relates to MCH1 receptor. The conditions noted are these: social conflict and forced swimming in rats, maternal separation in guinea pigs; cited from earlier work.

For the compound `COc1ccc(-c2nnc(NC3CCN(Cc4ccccc4)CC3)c3cc(OC)cc(OC)c23)cc1` [Example 2, N-(1-benzylpiperidin-4-yl)-5,7-dimethoxy-4-(4-methoxyphenyl)phthalazin-1-amine], the IC50 at MCH1 receptor [1] was 72 nM. For the compound `c1ccc(-c2ccc3c(-c4ccccc4)nnc(NC4CCN(Cc5ccc6ccccc6c5)CC4)c3c2)cc1` [Example 42, 4,7-diphenyl-N-[1-(naphthalen-2-ylmethyl)piperidin-4-yl]-phthalazin-1-amine dihydrochloride], on MCH1 receptor [1], the IC50 stood at 360 nM. As a reminder, the melting point is the temperature, or range, at which the solid turns liquid. On to `COc1ccc2c(CO)nnc(NC3CCN(Cc4ccc5ccccc5c4)CC3)c2c1` [Example 48, 4-Hydroxymethyl-7-methoxy-N-[1-(naphthalen-2-ylmethyl)piperidin-4-yl]phthalazin-1-amine], for which the melting point came out at 102 °C. Regarding `COCC1=C(C(=O)OC)[C@H](c2ccc(F)c(F)c2)N(C(=O)NCCCN2CCC(c3cccc(NC(C)=O)c3)CC2)C(=O)N1` [SNAP-7941], the “behavioural profile in animal models” value in the data set with MCH1 receptor [2] is recorded as “anxiolytic and/or antidepressant profile”.
